The source of these data is the Kinase Knowledgebase extract (Sharma et al. 2016).

Chain of MAPK14 (human) (Q16539 whole entry, looked up): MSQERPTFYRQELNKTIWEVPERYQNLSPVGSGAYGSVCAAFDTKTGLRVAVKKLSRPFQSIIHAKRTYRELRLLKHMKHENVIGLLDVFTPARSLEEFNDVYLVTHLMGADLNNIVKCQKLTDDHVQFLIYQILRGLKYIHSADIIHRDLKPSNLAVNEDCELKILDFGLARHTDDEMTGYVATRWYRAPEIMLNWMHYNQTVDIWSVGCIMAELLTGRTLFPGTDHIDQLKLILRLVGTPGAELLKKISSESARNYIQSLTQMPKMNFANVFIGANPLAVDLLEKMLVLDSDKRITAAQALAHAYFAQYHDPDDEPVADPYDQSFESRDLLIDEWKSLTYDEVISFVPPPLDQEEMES

The experiment concerns the target MAPK14 (human) (UniProt Q16539). Kind of experiment: Inhibition of MAPK14 Kinase Activity.
Broadly, the IC50 is the concentration that gives 50% inhibition. A lower IC50 goes with inhibition by little substance. As usually defined, the Ki is the equilibrium dissociation constant of an inhibitor or competing ligand from its target. The compound `CC(C)n1c(N2CCC(O)CC2)nc(OCc2ccc(F)cc2F)c(Br)c1=O` gave an IC50 of 304 nM and a Ki of 166 nM.

In turn, `Cn1c(NCC(N)=O)nc(OCc2ccc(F)cc2F)c(Br)c1=O` registered an IC50 of 954 nM and a Ki of 532 nM.

`CC(C)n1c(CCCCO)nc(OCc2ccc(F)cc2F)c(Br)c1=O` returned an IC50 of 239 nM and a Ki of 114 nM.

On to `COC(=O)c1ccc(CNc2nc(OCc3ccc(F)cc3F)c(Br)c(=O)n2C(C)C)cc1`, for which the IC50 stood at 637 nM and the Ki came to 304 nM.

As for `CC(C)n1c(N(C)CC(N)=O)nc(OCc2ccc(F)cc2F)c(Cl)c1=O`, the IC50 came out at 1680 nM and the Ki worked out at 774 nM.

`CC(C)n1c(N2CC[C@H](NC(=O)CO)C2)nc(OCc2ccc(F)cc2F)c(Cl)c1=O` returned an IC50 of 813 nM and a Ki of 522 nM.

Regarding `CC(C)n1c(N2CC[C@H](N)C2)nc(OCc2ccc(F)cc2F)c(Br)c1=O`, the IC50 worked out at 818 nM and the Ki turned out to be 435 nM.

In turn, `CC(C)n1c(NC[C@H](O)CO)nc(OCc2ccc(F)cc2F)c(Br)c1=O` showed a 50% inhibitory concentration (IC50) of 18.3 nM and a Ki of 9.05 nM.

On to `CC(=O)N[C@@H]1CCN(c2nc(OCc3ccc(F)cc3F)c(Cl)c(=O)n2C(C)C)C1`, for which the IC50 turned out to be 578 nM and the Ki is 371 nM.

Consider `CC(C)n1c(N2CC[C@H](NC(=O)C(C)(C)O)C2)nc(OCc2ccc(F)cc2F)c(Cl)c1=O`, for which the IC50 came to 864 nM and the Ki was 555 nM.

Compound `CC(C)n1c(N2CCN(C(=O)C(C)(C)N)CC2)nc(OCc2ccc(F)cc2F)c(Br)c1=O` returned an IC50 of 531 nM and a Ki of 222 nM.

`CC(C)n1c(NCCNC(=O)C(C)(C)O)nc(OCc2ccc(F)cc2F)c(Br)c1=O` gave an IC50 of 17.2 nM and a Ki of 8.14 nM.

Turning to `CC(C)n1c(NCCCNC(=O)CO)nc(OCc2ccc(F)cc2F)c(Br)c1=O`, the half-maximal inhibitory concentration (IC50) stood at 12.5 nM and the inhibition constant (Ki) was found to be 5.95 nM.

As for `CC(C)n1c(NCCN)nc(OCc2ccc(F)cc2F)c(Br)c1=O`, the IC50 is 143 nM and the Ki was found to be 78.1 nM.

For the compound `CC(C)n1c(NCC(N)=O)nc(OCc2ccc(F)cc2F)c(Br)c1=O`, the IC50 came out at 14.1 nM and the Ki is 7.03 nM.

As for `CC(C)n1c(-c2ccc(C(N)=O)cc2)nc(OCc2ccc(F)cc2F)cc1=O`, the IC50 is 260 nM and the Ki was 144 nM.

`CC(=O)NCCCNc1nc(OCc2ccc(F)cc2F)c(Br)c(=O)n1C(C)C` came in with an IC50 of 13 nM and a Ki of 6.62 nM.

Compound `CC(C)n1c(N2CC[C@@H](N)C2)nc(OCc2ccc(F)cc2F)c(Br)c1=O` yielded an IC50 of 69.6 nM and a Ki of 36.3 nM.

Consider `CC(C)n1c(NCCNC(=O)C(C)(C)O)nc(OCc2ccc(F)cc2F)c(Cl)c1=O`, for which the IC50 was 51.6 nM and the Ki is 24.7 nM.

As to `CC(C)n1c(OCCNS(C)(=O)=O)nc(OCc2ccc(F)cc2F)c(Br)c1=O`, the IC50 came out at 18.5 nM and the Ki stood at 9.47 nM.

`CC(C)n1c(-c2cccc(C(N)=O)c2)nc(OCc2ccc(F)cc2F)c(Cl)c1=O` displayed an IC50 of 1020 nM and a Ki of 557 nM.

`CC(C)n1c(CCCC(=O)NC[C@@H](C)O)nc(OCc2ccc(F)cc2F)c(Cl)c1=O` displayed an IC50 of 594 nM and an inhibition constant (Ki) of 310 nM.

The compound `CC(C)n1c(-c2cccc(C(N)=O)c2)nc(OCc2ccc(F)cc2F)c(Br)c1=O` yielded an IC50 of 608 nM and a Ki of 378 nM.

In turn, `CNC(=O)CNc1nc(OCc2ccc(F)cc2F)c(Br)c(=O)n1C(C)C` had an IC50 of 80 nM and a Ki of 41.9 nM.

Regarding `CNC(=O)NCCOc1nc(OCc2ccc(F)cc2F)c(Cl)c(=O)n1C(C)C`, the IC50 turned out to be 249 nM and the Ki was 123 nM.

`CC(C)n1c(CCCCO)nc(OCc2ccc(F)cc2F)c(Cl)c1=O`: the IC50 was determined as 181 nM and the Ki came out at 90.5 nM.

Regarding `CSc1cc(OCc2ccc(F)cc2F)c(Br)c(=O)n1C(C)C`, the IC50 is 230 nM and the Ki was determined as 119 nM.
